Data: US20070099232A1, “Ecdysone receptor ligand-binding domain structure” (priority 2003, published 2007)

Key:
[1] = test system: BtEcR; test: BtEcR competitive binding assay with [3H]-ponasterone A as tracer; design: species or system Bemisia tabaci
From the text: As will be readily understood by persons skilled in this field, the methods of the present invention provide a rational method for designing and selecting compounds which interact with an ecdysone receptor and specifically that of B. tabaci. In the majority of cases these compounds will require further development in order to increase activity. Such further development is routine in this field and will be assisted by the structural information provided in this application and screens employing EcR and optionally USP nucleotide and/or polypeptide sequences. In vitro competitive binding screens compete unlabelled test compounds against a labelled ligand (tracer) to observe if they inhibit the binding of the latter to functional receptor LBDs. In vitro competition binding screens may utilise LBD sequences or D (linker) domain sequences linked to LBD sequences. In vivo cell-based screens employ full-length EcR and optionally full-length USP nucleotide sequences functionally linked to suitable promoters for expression in mammalian, insect or yeast cells containing a suitable reporter gene construct. Alternatively, in vivo cell-based screens may employ the EF or DEF domain encoding regions of EcR and optionally of USP nucleotide sequences functionally linked to nucleotide sequences encoding domains from other transcription factors. In particular, the BtEcR nucleotide sequence (SEQ ID NO 1) and/or polypeptide sequence (SEQ ID NO 2) and optionally BtUSP nucleotide sequence and/or polypeptide sequence or the corresponding EF or DEF domains may be utilised in screens to develop improved compounds derived by rational design employing the B. tabaci EcR/USP crystal structure. It is intended that in particular embodiments the methods of the present invention includes such further developmental steps.
Biological assays to measure the activity of ecdysone receptor agonists and antagonists are well known in the field. Traditional screens for ecdysone receptor agonists examine candidate compounds for an ability to induce the moulting or pupation of whole insect larvae (Becker, 1941; Cymborowski, 1989), the evagination of imaginal discs (Fristrom J. W. & Yund, 1976) or morphological transformation of the Drosophila BII cell line (Clément et al., 1993). More recent assays use mammalian or other eukaryotic cells that have been co-transfected with a recombinant ecdysone receptor and a reporter gene linked to an appropriate response element Both types of screen can also be reformatted to detect non-agonist ligands (antagonists), which can be recognised by their ability to inhibit the activation the receptor by an agonist provided as a standard component of the assay (Yang et al., 1986; Oberdorster et al., 2001)(Oberdorster et al, 2001). […] In addition, potential agonists and antagonists may be screened for their ability to inhibit the binding of europium-labelled ecdysone receptor ligands to soluble, recombinant ecdysone receptor in a microplate-based format Europium is a lanthanide fluorophore, the presence of which can be measured using time-resolved fluorometry. […] Binding affinity and inhibitor potency may also be measured for candidate inhibitors using biosensor technology. […]

[2] = test system: Choristoneura fumiferana EcR A110P; conditions: single point mutation A110P; cited from earlier work
[3] = test system: Lepidotera versus Diptera; conditions: selectivity at the level of insect orders; cited from earlier work
[4] = test system: whitefly (B. tabaci) receptor; test: In vitro binding studies employing purified recombinant LBDs (whitefly receptor); design: species or system Bemisia tabaci; conditions: unpublished results
From the text: (§1) Table 3 presents the inter-order variation apparent across a variety of Insecta EcR LBDs for those residues that line the ecdysteroid binding pocket observed in the B. tabaci structure. […] For example, in the hemipteran B. tabaci (resistant to the bisacylhydrazine compounds) residue 272 is methionine, whereas in lepidopteran species (susceptible to bisacylhydrazines) the residue at this position is a smaller valine. Attention has also been drawn to the potential importance of the residue at this position in relation to the control spectrum of bisacylhydrazine insecticides in the communication by Billas et al. (2003) reporting the crystal structure of the lepidopteran Heliothis virescens EcR/USP heterodimeric LBD. It is apparent from Table 3 of the present application that the methionine at position 272 is present in the Hemiptera, Diptera, Orthoptera and Coleoptera while the residue in this position of the Lepidoptera is valine. […] Clearly the response to bisacylhydrazines is not simply dependent on the residue at the position corresponding to 272 in B. tabaci.

[5] = molecular target: T1, dipteran (Lucilia cuprina) receptor (Lucilia cuprina, UniProt O18531); test: In vitro binding studies employing purified recombinant LBDs (dipteran receptor); conditions: unpublished results
T1 construct: made in house
T1 sequence (O18531 442-677 limits assumed): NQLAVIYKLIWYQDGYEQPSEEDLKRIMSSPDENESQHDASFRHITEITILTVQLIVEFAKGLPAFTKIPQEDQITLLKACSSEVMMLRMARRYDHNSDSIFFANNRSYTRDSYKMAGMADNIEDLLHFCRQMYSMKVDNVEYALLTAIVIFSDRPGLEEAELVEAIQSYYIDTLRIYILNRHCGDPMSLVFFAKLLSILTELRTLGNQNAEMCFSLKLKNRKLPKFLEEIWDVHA
From the text: as §1

[6] = test system: BtEcR/BtUSP heterodimer binding to EcRE DNA; test: Electrophoretic mobility shift assay (EMSA) of receptor binding to EcRE (hsp27 response element); assay type: biochemical, Bemisia tabaci; conditions: in the presence of 5mM MgCl2; compared to binding without hormone
Procedure: DNA binding function was assessed by electrophoretic mobility shift assay (EMSA). For these experiments, EcR and USP proteins were translated as above but using unlabelled methionine. The EcRE probe (hsp27 response element) was prepared by α-^32P labelling 5 pmol of annealed oligo (5′[…]3′ and 5′[…]3′) with Klenow ([…] Labelling Kit, Geneworks). This mix was then phenol/chloroform extracted, ethanol precipitated and resuspended in 100 μl of TE. Binding and electrophoresis were performed as described by (Molloy, 2000). For a 20 μl reaction mix, 2.5 μl of each translated extract was incubated with 8.0 μl of BufferA (20 mM HEPES pH 7.9, 100 mM KCI, 2 mM dithiothreitol (DTT), 1 mM EDTA, 20% (v/v) glycerol), 2 μl of 2% (v/v) NP-40, 1 μl BSA (10 mg/ml), 0.5 μl 2 mg/ml poly (dI-dC).poly(dI-dC), 6 μg single stranded DNA plus or minus 1 μl of 100 mM MgCl2. After 20 minutes at room temperature, 0.05 pmoles of labelled probe was added and the mix was incubated again for 20 minutes. One sample also had the addition of excess (1.25 pmoles) unlabelled EcRE DNA. 10 μl of the mix was analysed by electrophoresis at 4° C., 80 V in a 0.25×TBE, 5% polyacrylamide gel. After fixing and drying, radioactive species were visualized by the Molecular Dynamics Phosphorimaging system. […]

[7] = molecular target: recombinant B. tabaci receptor LBD (BtEcR/BtUSP heterodimer); test: Equilibrium binding studies with [3H]-ponasterone A as ligand; design: species or system Bemisia tabaci; conditions: by direct curve fitting, recombinant heterodimeric LBD
Procedure: Pilot-scale expression of recombinant heterodimeric BtEcR-BtUSP LBD was achieved by infection of suspension cultures of Sf9, Sf21 and or Hi-5 insect cells in spinner flasks or Schott bottles on a shaker platform maintained at 27° C. Insect cells infected with the virus engineered to express BtEcR/BtUSP ligand-binding domain were shown by gel electrophoresis to contain the expressed polypeptides corresponding to the two tagged domains.

SMILES: O=C(CSC1NCCN1)c1ccccc1 [IV]
- binding in BtEcR competitive binding assay [1]: weak-moderate binding

SMILES: CCc1c(OC)cccc1C(=O)NN(C(=O)c1cc(C)cc(C)c1)C(C)(C)C [RG-102240]
- effect of A110P point mutation on response of receptor to ligand [2]: without affecting response

SMILES: CCc1ccc(C(=O)NN(C(=O)c2cc(C)cc(C)c2)C(C)(C)C)cc1 [RH5992]
- effectiveness against Lepidotera relative to Diptera [3]: two to three orders of magnitude more effective
- affinity of receptor for compound [4]: only very low affinity
- binding in BtEcR competitive binding assay [1]: negligible binding
- affinity of receptor for compound [5]: significant affinity

SMILES: O=C1OC(c2cccs2)=N/C1=C/c1ccccc1 [compound III]
- binding in BtEcR competitive binding assay [1]: weak-moderate binding

SMILES: CC(C)(C)C(=O)N1N=C(c2ccccc2)OC1(C)c1ccc(F)cc1 (centres unmarked) [compound II]
- binding in BtEcR competitive binding assay [1]: negligible binding

SMILES: CC(C)(C)N(NC(=O)c1ccccc1)C(=O)c1ccccc1 [compound I]
- binding in BtEcR competitive binding assay [1]: negligible binding

SMILES: CC(C)CC[C@@H](O)[C@](C)(O)[C@H]1CC[C@@]2(O)C3=CC(=O)[C@@H]4C[C@@H](O)[C@@H](O)C[C@]4(C)[C@H]3CC[C@]12C [ponasterone A]
- effect of hormone on binding of receptor heterodimer to EcRE [6]: clearly enhanced binding
- Kd [7]: 1.21 ± 0.17 nM
